# Target: T1, LIMK2 (Homo sapiens, UniProt P53671)
# T1 construct: His tag (histidine-tagged; pFastBacHT vector); made in house; host or cells: Sf9 insect cells (BAC-to-BAC baculovirus system)
# Assay: In vitro LIMK2 inhibition assay (33P incorporation into myelin basic protein flash plates)
# Format: biochemical
# Experimental: Using the procedures described herein and methods known in the art, the additional compounds listed below in Table 1 were prepared. The LIMK2 IC50 data that is provided below for some of the compounds was determined using the assay described in Example 32.
# An in vitro assay used to identify LIMK2 inhibitors was developed. The analytical readout was the incorporation of ^33P from ATP substrate into immobilized myelin basic protein coated flash plates (Perkin Elmer Biosciences), which were counted on a scintillation counter equipped with a plate reader (TopCount, Packard Bioscience, Meriden, Conn.). Using 384 well flat MBP flashplates, total assay volume was 50 μl. The HTS program utilized a Biomek FX for dilution.
# For each assay, the ingredients and conditions were as follows: 200 ng of enzyme was incubated in assay buffer (1× assay buffer contains 30 mM HEPES (pH 8.0), 5 mM DTT, and 10 mM MgCl2), 10 μM ATP, 0.2 μCi [gamma-^33P]-ATP and 10 μM of potential inhibitory compound. The reaction was incubated at room temperature for 60 minutes, washed 3 times with 75 μl of stop/wash buffer (1× stop/was buffer contains 50 mM EDTA and 20 mM Tris (pH 7.4)), and then the plates were read on the scintillation counter. Different concentrations of staurosporine (400 nM, 200 nM, 100 nM and 50 nM; purchased from BIOMOL (Plymouth Meeting, Pa.)) were used as controls on each plate.
# T1 sequence (P53671 whole entry): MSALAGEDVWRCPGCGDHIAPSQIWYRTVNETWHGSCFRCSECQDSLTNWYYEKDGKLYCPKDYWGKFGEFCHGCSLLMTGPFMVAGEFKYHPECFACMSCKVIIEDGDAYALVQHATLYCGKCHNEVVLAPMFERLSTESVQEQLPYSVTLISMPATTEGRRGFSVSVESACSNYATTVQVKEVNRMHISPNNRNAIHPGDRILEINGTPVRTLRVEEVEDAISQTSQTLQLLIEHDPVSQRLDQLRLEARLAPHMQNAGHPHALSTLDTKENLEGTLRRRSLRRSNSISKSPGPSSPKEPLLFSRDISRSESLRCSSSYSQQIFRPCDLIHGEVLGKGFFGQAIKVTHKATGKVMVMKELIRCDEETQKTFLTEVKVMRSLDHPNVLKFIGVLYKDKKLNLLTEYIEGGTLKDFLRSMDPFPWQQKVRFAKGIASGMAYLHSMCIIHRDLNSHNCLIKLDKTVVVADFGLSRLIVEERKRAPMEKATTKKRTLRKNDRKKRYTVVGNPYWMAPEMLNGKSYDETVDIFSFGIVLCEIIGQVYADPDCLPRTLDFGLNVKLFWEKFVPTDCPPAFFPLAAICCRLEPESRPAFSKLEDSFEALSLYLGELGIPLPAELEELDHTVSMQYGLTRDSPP
row,Compound,IC50 [µM]
1,"Cc1c[nH]c2ncnc(N3CCC(CNC(=O)[C@@H](N)CO)(C(=O)Nc4cccc(OC(=O)N(C)C)c4)CC3)c12 [(S)-3-(4-((2-amino-3-hydroxypropanamido)methyl)-1-(5-methyl-7H-pyrrolo[2,3-d]pyrimidin-4-yl)piperidine-4-carboxamido)phenyl dimethylcarbamate]",< 0.25
2,"Cc1c[nH]c2ncnc(N3CCC(CNS(N)(=O)=O)(C(=O)Nc4cccc(OC(=O)N(C)C)c4)CC3)c12 [3-(1-(5-methyl-7H-pyrrolo[2,3-d]pyrimidin-4-yl)-4-((sulfamoylamino)methyl)piperidine-4-carboxamido)phenyl dimethylcarbamate]",< 0.25
3,"Cc1c[nH]c2ncnc(N3CCC(C)(C(=O)Nc4ccccc4)CC3)c12 [4-methyl-1-(5-methyl-7H-pyrrolo[2,3-d]pyrimidin-4-yl)-N-phenylpiperidine-4-carboxamide]",< 0.25
4,"Cc1c[nH]c2ncnc(N3CCC(CCN4CCOCC4)(C(=O)Nc4cccc(OC(=O)N(C)C)c4)CC3)c12 [3-(1-(5-methyl-7H-pyrrolo[2,3-d]pyrimidin-4-yl)-4-(2-morpholinoethyl)piperidine-4-carboxamido)phenyl dimethylcarbamate]",< 0.25
5,"Cc1c[nH]c2ncnc(N3CCC(CN)(C(=O)Nc4cccc(OC(C)C)c4)CC3)c12 [4-(aminomethyl)-N-(3-isopropoxyphenyl)-1-(5-methyl-7H-pyrrolo[2,3-d]pyrimidin-4-yl)piperidine-4-carboxamide]",< 0.25
6,"Cc1c[nH]c2ncnc(N3CCC(CN)(C(=O)Nc4cccc(C#N)c4)CC3)c12 [4-(aminomethyl)-N-(3-cyanophenyl)-1-(5-methyl-7H-pyrrolo[2,3-d]pyrimidin-4-yl)piperidine-4-carboxamide]",< 0.25
7,"C=CCC1(C(=O)Nc2cccc(Oc3ccc(F)cc3)c2)CCN(c2ncnc3[nH]cc(C)c23)CC1 [4-allyl-N-(3-(4-fluorophenoxy)phenyl)-1-(5-methyl-7H-pyrrolo[2,3-d]pyrimidin-4-yl)piperidine-4-carboxamide]",< 0.25
8,"Cc1c[nH]c2ncnc(N3CCC(CN)(C(=O)Nc4cccc(C(F)(F)F)c4)CC3)c12 [4-(aminomethyl)-1-(5-methyl-7H-pyrrolo[2,3-d]pyrimidin-4-yl)-N-(3-(trifluoromethyl)phenyl)piperidine-4-carboxamide]",< 0.25
9,"Cc1c[nH]c2ncnc(N3CCC(C)(C(=O)Nc4cccc(S(=O)(=O)NC(C)C)c4)CC3)c12 [N-(3-(N-isopropylsulfamoyl)phenyl)-4-methyl-1-(5-methyl-7H-pyrrolo[2,3-d]pyrimidin-4-yl)piperidine-4-carboxamide]",< 0.25
10,"Cc1c[nH]c2ncnc(N3CCC(CN)(C(=O)Nc4cccc(O)c4)CC3)c12 [4-(aminomethyl)-N-(3-hydroxyphenyl)-1-(5-methyl-7H-pyrrolo[2,3-d]pyrimidin-4-yl)piperidine-4-carboxamide]",< 0.25
11,"COCC(=O)NCC1(C(=O)Nc2cccc(OC(=O)N(C)C)c2)CCN(c2ncnc3[nH]cc(C)c23)CC1 [3-(4-((2-methoxyacetamido)methyl)-1-(5-methyl-7H-pyrrolo[2,3-d]pyrimidin-4-yl)piperidine-4-carboxamido)phenyl dimethylcarbamate]",< 0.25
12,"Cc1c[nH]c2ncnc(N3CCC(NCCOCc4ccccc4)(C(=O)Nc4cccc(OC(=O)N(C)C)c4)CC3)c12 [3-(4-(2-(benzyloxy)ethylamino)-1-(5-methyl-7H-pyrrolo[2,3-d]pyrimidin-4-yl)piperidine-4-carboxamido)phenyl dimethylcarbamate]",< 0.25
13,"Cc1c[nH]c2ncnc(N3CCC(Cc4ncc[nH]4)(C(=O)Nc4cccc(OC(=O)N(C)C)c4)CC3)c12 [3-(4-((1H-imidazol-2-yl)methyl)-1-(5-methyl-7H-pyrrolo[2,3-d]pyrimidin-4-yl)piperidine-4-carboxamido)phenyl dimethylcarbamate]",< 0.25
14,"Cc1c[nH]c2ncnc(N3CCC(CNC(=O)C(C)(CO)CO)(C(=O)Nc4cccc(OC(=O)N(C)C)c4)CC3)c12 [3-(4-((3-hydroxy-2-(hydroxymethyl)-2-methylpropanamido)methyl)-1-(5-methyl-7H-pyrrolo[2,3-d]pyrimidin-4-yl)piperidine-4-carboxamido)phenyl dimethylcarbamate]",< 0.25
15,"Cc1c[nH]c2ncnc(N3CCC(CNC(=O)CC4NC(=O)NC4=O)(C(=O)Nc4cccc(OC(=O)N(C)C)c4)CC3)c12 (stereo not drawn) [3-(4-((2-(2,5-dioxoimidazolidin-4-yl)acetamido)methyl)-1-(5-methyl-7H-pyrrolo[2,3-d]pyrimidin-4-yl)piperidine-4-carboxamido)phenyl dimethylcarbamate]",< 0.25
16,"Cc1c[nH]c2ncnc(N3CCC(C)(C(=O)Nc4cccc(Br)c4)CC3)c12 [N-(3-bromophenyl)-4-methyl-1-(5-methyl-7H-pyrrolo[2,3-d]pyrimidin-4-yl)piperidine-4-carboxamide]",< 0.25
17,"Cc1c[nH]c2ncnc(N3CCC(CNS(=O)(=O)N(C)C)(C(=O)Nc4cccc(OC(=O)N(C)C)c4)CC3)c12 [3-(4-((N,N-dimethylsulfamoylamino)methyl)-1-(5-methyl-7H-pyrrolo[2,3-d]pyrimidin-4-yl)piperidine-4-carboxamido)phenyl dimethylcarbamate]",< 0.25
18,"Cc1c[nH]c2ncnc(N3CCC(CNC(=O)c4cnn(C)c4)(C(=O)Nc4cccc(OC(=O)N(C)C)c4)CC3)c12 [3-(4-((1-methyl-1H-pyrazole-4-carboxamido)methyl)-1-(5-methyl-7H-pyrrolo[2,3-d]pyrimidin-4-yl)piperidine-4-carboxamido)phenyl dimethylcarbamate]",< 0.25
19,"Cc1cc(C(=O)NCC2(C(=O)Nc3cccc(OC(=O)N(C)C)c3)CCN(c3ncnc4[nH]cc(C)c34)CC2)n[nH]1 [3-(4-((5-methyl-1H-pyrazole-3-carboxamido)methyl)-1-(5-methyl-7H-pyrrolo[2,3-d]pyrimidin-4-yl)piperidine-4-carboxamido)phenyl dimethylcarbamate]",< 0.25
20,"CC(=O)NCC1(C(=O)Nc2cccc(OC(=O)N(C)C)c2)CCN(c2ncnc3[nH]cc(C)c23)CC1 [3-(4-(acetamidomethyl)-1-(5-methyl-7H-pyrrolo[2,3-d]pyrimidin-4-yl)piperidine-4-carboxamido)phenyl dimethylcarbamate]",< 0.25
21,"CCCC1(C(=O)Nc2cccc(OC(=O)N(C)C)c2)CCN(c2ncnc3[nH]cc(C)c23)CC1 [3-(1-(5-methyl-7H-pyrrolo[2,3-d]pyrimidin-4-yl)-4-propylpiperidine-4-carboxamido)phenyl dimethylcarbamate]",< 0.25
22,"Cc1c[nH]c2ncnc(N3CCC(C)(C(=O)Nc4cccc(S(=O)(=O)N5CCOCC5)c4)CC3)c12 [4-methyl-1-(5-methyl-7H-pyrrolo[2,3-d]pyrimidin-4-yl)-N-(3-(morpholinosulfonyl)phenyl)piperidine-4-carboxamide]",< 0.25
23,"COCCOc1cccc(NC(=O)C2(CN)CCN(c3ncnc4[nH]cc(C)c34)CC2)c1 [4-(aminomethyl)-N-(3-(2-methoxyethoxy)phenyl)-1-(5-methyl-7H-pyrrolo[2,3-d]pyrimidin-4-yl)piperidine-4-carboxamide]",< 0.25
24,"COc1ccc(NC(=O)C2(C)CCN(c3ncnc4[nH]cc(C)c34)CC2)cc1 [N-(4-methoxyphenyl)-4-methyl-1-(5-methyl-7H-pyrrolo[2,3-d]pyrimidin-4-yl)piperidine-4-carboxamide]",< 0.25

# — patent publication US8450332B2, “LIMK2 inhibitors, compositions comprising them, and methods of their use” (Lexicon Pharmaceuticals, Inc., priority 2008, dated 2013)
